In ChEMBL document CHEMBL1201862, “PubChem BioAssay data set” (2004):
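Where inhibition never reached the appropriate level, the endpoint shown equals the highest concentration tested. Otherwise, values were interpolated linearly from a five-concentration, 48-hour dose response in 96-well plates. GI50 = concentration required for 50% inhibition of growth.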 The source made the active and inactive calls. No stated cut-off is given here; in the data, active = GI50 up to about 1.1 µM and inactive = higher.

Experiments:
Test in all cases: NCI anticancer screen, dose series, 48 h
NCI-H23 = test system: NCI-H23
OVCAR-3 = test system: OVCAR-3
PC-3 = test system: PC-3
RXF 393 = test system: RXF 393
NCI/ADR-RES = test system: NCI/ADR-RES
HCC 2998 = test system: HCC 2998
SNB-75 = test system: SNB-75
SW-620 = test system: SW-620
MDA-MB-435 = test system: MDA-MB-435
A549 = test system: A549
T47D = test system: T47D
SK-MEL-28 = test system: SK-MEL-28
ACHN = test system: ACHN
CAKI-1 = test system: CAKI-1
UACC-257 = test system: UACC-257
MOLT-4 = test system: MOLT-4
M14 = test system: M14
HOP-92 = test system: HOP-92
HCT-116 = test system: HCT-116
MDA-MB-231 = test system: MDA-MB-231

Compound	GI50 (NCI-H23)	GI50 (OVCAR-3)	GI50 (PC-3)	GI50 (RXF 393)	GI50 (NCI/ADR-RES)	GI50 (HCC 2998)	GI50 (SNB-75)	GI50 (SW-620)	GI50 (MDA-MB-435)	GI50 (A549)	GI50 (T47D)	GI50 (SK-MEL-28)	GI50 (ACHN)	GI50 (CAKI-1)	GI50 (UACC-257)	GI50 (MOLT-4)	GI50 (M14)	GI50 (HOP-92)	GI50 (HCT-116)	GI50 (MDA-MB-231)
Nc1ccn(C2OC(COP(=O)(O)OCC3OC(n4cc(F)c(=O)[nH]c4=O)CC3O)C(O)C2O)c(=O)n1 (stereo not given)	0.314 µM (active)	> 100 µM (inactive)	> 100 µM (inactive)	> 56.8 µM (inactive)	9.23 µM (inactive)	87.9 µM (inactive)	> 48.3 µM (inactive)	> 100 µM (inactive)	1.58 µM (inactive)	0.0244 µM (active)	4.47 µM (inactive)	> 25.5 µM (inactive)	0.0447 µM (active)	0.508 µM (active)	> 21.5 µM (inactive)	0.0575 µM (active)	0.183 µM (active)	38 µM (inactive)	0.687 µM (active)	–
COc1ccccc1NC(=O)CC(=O)n1nc(-c2ccccc2)c(/N=N/c2ccccc2[N+](=O)[O-])c1-c1ccccc1	98.4 µM (inactive)	69 µM (inactive)	–	44.7 µM (inactive)	–	70 µM (inactive)	17.8 µM (inactive)	> 100 µM (inactive)	–	> 100 µM (inactive)	–	30 µM (inactive)	32.2 µM (inactive)	> 100 µM (inactive)	> 100 µM (inactive)	64.7 µM (inactive)	> 100 µM (inactive)	81.7 µM (inactive)	71.6 µM (inactive)	–
CC1=C(C(=O)Nc2ccc([N+](=O)[O-])cc2)C(c2ccco2)C(C(=O)Nc2ccc([N+](=O)[O-])cc2)=C(C)N1	13.4 µM (inactive)	11.2 µM (inactive)	–	4.61 µM (inactive)	–	8.77 µM (inactive)	2.72 µM (inactive)	24.4 µM (inactive)	–	18.1 µM (inactive)	–	28.2 µM (inactive)	4.4 µM (inactive)	20.3 µM (inactive)	18.5 µM (inactive)	4.33 µM (inactive)	21.9 µM (inactive)	14.8 µM (inactive)	–	–
CCOc1ccc(/N=N/c2c(-c3ccccc3)nn(C(=O)CC(=O)Nc3cccc(C)c3)c2-c2ccccc2)cc1	> 100 µM (inactive)	> 100 µM (inactive)	–	57.9 µM (inactive)	–	26.6 µM (inactive)	27.9 µM (inactive)	> 100 µM (inactive)	–	> 100 µM (inactive)	–	> 100 µM (inactive)	38.5 µM (inactive)	> 100 µM (inactive)	> 100 µM (inactive)	> 100 µM (inactive)	> 100 µM (inactive)	> 100 µM (inactive)	58.5 µM (inactive)	–
Nc1ccccc1/C=C\c1ccccc1	> 100 µM (inactive)	> 100 µM (inactive)	> 100 µM (inactive)	> 100 µM (inactive)	> 100 µM (inactive)	–	> 100 µM (inactive)	> 100 µM (inactive)	> 100 µM (inactive)	> 100 µM (inactive)	> 100 µM (inactive)	> 100 µM (inactive)	> 100 µM (inactive)	–	> 100 µM (inactive)	> 100 µM (inactive)	> 100 µM (inactive)	> 100 µM (inactive)	> 100 µM (inactive)	–
O=C(O)C1CCCN1C(=O)c1cc(Cl)ccn1 (stereo not given)	> 100 µM (inactive)	> 100 µM (inactive)	> 100 µM (inactive)	> 100 µM (inactive)	> 100 µM (inactive)	> 100 µM (inactive)	> 100 µM (inactive)	> 100 µM (inactive)	> 100 µM (inactive)	> 100 µM (inactive)	> 100 µM (inactive)	> 100 µM (inactive)	> 100 µM (inactive)	> 100 µM (inactive)	> 100 µM (inactive)	> 100 µM (inactive)	> 100 µM (inactive)	> 100 µM (inactive)	> 100 µM (inactive)	–
O=C(O)c1cc(=O)c2c([nH]c3ccccc32)s1	> 100 µM (inactive)	> 100 µM (inactive)	–	> 100 µM (inactive)	–	> 100 µM (inactive)	56.8 µM (inactive)	> 100 µM (inactive)	–	> 100 µM (inactive)	–	> 100 µM (inactive)	> 100 µM (inactive)	> 100 µM (inactive)	> 100 µM (inactive)	> 100 µM (inactive)	> 100 µM (inactive)	> 100 µM (inactive)	–	–
CSCCC(NC(=O)Cc1ccc(C(=O)c2ccccc2)cc1)C(=O)N1CCN(CCCCN2c3ccccc3Sc3cc(N=[N+]=[N-])ccc32)CC1 (stereo not given)	27.9 µM (inactive)	> 100 µM (inactive)	65.9 µM (inactive)	89.9 µM (inactive)	–	> 100 µM (inactive)	–	–	–	–	–	–	> 100 µM (inactive)	> 100 µM (inactive)	> 100 µM (inactive)	> 100 µM (inactive)	–	> 100 µM (inactive)	65.8 µM (inactive)	> 100 µM (inactive)
O=C1Nc2ccccc2/C1=N/Nc1ncccc1[N+](=O)[O-]	–	6.25 µM (inactive)	12.4 µM (inactive)	–	9.25 µM (inactive)	–	1.39 µM (inactive)	8.13 µM (inactive)	16.8 µM (inactive)	18 µM (inactive)	–	22.6 µM (inactive)	4.69 µM (inactive)	–	23 µM (inactive)	48.1 µM (inactive)	16.3 µM (inactive)	62.2 µM (inactive)	4.92 µM (inactive)	86.9 µM (inactive)
NS(=O)(=O)c1ccc(NC(=O)COC(=O)c2cccc3c(=O)c4ccccc4[nH]c23)cc1	21.4 µM (inactive)	20.5 µM (inactive)	–	17.5 µM (inactive)	–	39.4 µM (inactive)	14.4 µM (inactive)	52.7 µM (inactive)	–	46.9 µM (inactive)	–	50.8 µM (inactive)	26.5 µM (inactive)	> 52.5 µM (inactive)	57.3 µM (inactive)	14.3 µM (inactive)	61.4 µM (inactive)	16.5 µM (inactive)	17.7 µM (inactive)	–
CC(C(=O)Oc1ccc2ccccc2c1-c1c(O)ccc2ccccc12)c1ccccc1 (stereo not given)	14.4 µM (inactive)	12.6 µM (inactive)	–	11 µM (inactive)	–	14.5 µM (inactive)	9.79 µM (inactive)	15.2 µM (inactive)	–	13.6 µM (inactive)	–	15.4 µM (inactive)	13.7 µM (inactive)	11.5 µM (inactive)	13.7 µM (inactive)	7.67 µM (inactive)	13.2 µM (inactive)	10.3 µM (inactive)	12.9 µM (inactive)	–
C[P+](C)(C)C	> 100 µM (inactive)	> 100 µM (inactive)	–	> 100 µM (inactive)	–	> 100 µM (inactive)	> 100 µM (inactive)	> 100 µM (inactive)	–	> 100 µM (inactive)	–	> 100 µM (inactive)	> 100 µM (inactive)	> 100 µM (inactive)	> 100 µM (inactive)	> 100 µM (inactive)	> 100 µM (inactive)	> 100 µM (inactive)	> 100 µM (inactive)	–
CC(C)N(C(=O)C1(C)CC1)C(C)C	> 100 µM (inactive)	> 100 µM (inactive)	–	> 100 µM (inactive)	–	> 100 µM (inactive)	> 100 µM (inactive)	> 100 µM (inactive)	–	> 100 µM (inactive)	–	> 100 µM (inactive)	> 100 µM (inactive)	> 100 µM (inactive)	> 100 µM (inactive)	> 100 µM (inactive)	> 100 µM (inactive)	> 100 µM (inactive)	> 100 µM (inactive)	–
